Patent US20240383908A1, “SYNTHESIS AND APPLICATION OF PHOSPHATASE DEGRADER” (HINOVA PHARMACEUTICALS INC., priority 2021, published 2024)

Assays:
Format in all cases: cell-based
SHP2 protein [1] = biological target: T1, SHP2 protein (Homo sapiens, UniProt Q06124); test: Degradation activity on SHP2 protein in NCI-H358 cells (Western blot, DC50); design: endogenous in cells; details: read-out: Degradation activity for differenct cell lines NCI-H358 (DC50)
T1 sequence (Q06124 1-593): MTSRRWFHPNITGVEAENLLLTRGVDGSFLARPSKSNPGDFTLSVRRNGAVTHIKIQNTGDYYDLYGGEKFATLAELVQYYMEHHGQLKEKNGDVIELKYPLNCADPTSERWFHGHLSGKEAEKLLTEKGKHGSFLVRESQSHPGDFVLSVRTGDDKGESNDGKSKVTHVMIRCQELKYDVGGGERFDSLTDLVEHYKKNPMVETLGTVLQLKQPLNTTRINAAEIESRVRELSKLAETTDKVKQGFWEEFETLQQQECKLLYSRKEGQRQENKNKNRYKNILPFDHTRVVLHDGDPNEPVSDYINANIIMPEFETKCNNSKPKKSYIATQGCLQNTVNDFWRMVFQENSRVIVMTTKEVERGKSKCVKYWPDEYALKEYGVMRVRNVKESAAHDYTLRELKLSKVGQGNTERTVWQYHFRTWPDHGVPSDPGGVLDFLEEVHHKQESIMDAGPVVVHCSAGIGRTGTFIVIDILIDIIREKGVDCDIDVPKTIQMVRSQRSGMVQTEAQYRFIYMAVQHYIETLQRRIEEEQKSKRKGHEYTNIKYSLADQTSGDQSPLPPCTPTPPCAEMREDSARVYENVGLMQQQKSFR
Experimental: (1) MV-411 cells were cultured in the cell culture medium, and then well-growing cells were selected and inoculated in a 12-well plate, with 1 mL/well and 1×10^6 cells/well. The plate was incubated overnight in a 5% CO2 cell incubator at 37° C.
(2) 10 mM storage solution of each drug was prepared using dimethylsulfoxide (DMSO). The stock solution was diluted gradually with DMSO before use, and then 1 μL of the compound solution was added to the cell culture well (to ensure that the DMSO concentration in the culture system was […]), so that the final drug concentration is 100 nM, 10 nM, 3 nM, 1 nM, 0.3 nM, and 0.1 nM. Two wells were set for each concentration. The plate was gently shaken and mixed. Additionally, negative control wells (containing an equal amount of DMSO) and positive control wells were included.
(3) After 24 hours of cultivation, the cells were lysed using RIPA cell lysate, and the proteins were extracted. The protein concentration was measured using a BCA assay kit. 5× concentrated protein buffer was loaded, heated at 100° C. for 5 min, and then the sample was stored at −20° C.
(4) For each well, 30 μg of protein was loaded to polyacrylamide gel for electrophoresis.
(5) The protein was transferred from polyacrylamide gel to PVDF membrane, and sealed at room temperature with 5% skimmed milk for 1 h, which was then incubated with the primary antibodies (Anti-SHP2 rabbit mAb and Anti-GAPDH rabbit mAb) at 4° C. overnight. The membrane was washed three times with TBST solution, 10 minutes for each time. After that, the membrane was incubated with the secondary antibodies (horseradish peroxidase labeled goat anti-rabbit IgG) at room temperature for 2 h, and then washed three times with TBST solution, 10 minutes for each time, followed by exposure.
(6) The images were analyzed with Image J grayscale, and the degradation ratio of protein bands in the test group was calculated, based on the negative control group (DMSO) (100%).
(7) Using the Dose-response-inhibition equation in the data processing software GraphPad Prism 8, the DC50 value was obtained (which represents the drug concentration corresponding to 50% degradation of the target protein).
Using similar methods and different cell lines, the degradation activity of the compound according to the present invention on SHP2 protein of different cell lines was tested under suitable culture conditions.

SHP2 protein [2] = biological target: T1, SHP2 protein; test: Degradation activity on SHP2 protein in MIA Paca-2 cells (Western blot, DC50); design: endogenous in cells; host or cells: MIA Paca-2 cells; details: read-out: Degradation activity for differenct cell lines MIA Paca-2 (DC50)
Outline: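 DC50 is the concentration degrading 50% of SHP2 relative to DMSO control. It was derived by fitting Western blot band densitometry (anti-SHP2, GAPDH reference) from cells exposed 24 h to 0.1–100 nM compound in 0.1% DMSO.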

SHP2 protein [3] = biological target: T1, SHP2 protein; test: Degradation activity on SHP2 protein in MV-411 cells (Western blot, DC50); design: endogenous in cells; details: MV411 cells, 24 hours, read-out: Degradation activity for differenct cell lines MV411 (DC50)
Outline: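 Western blot of SHP2 (GAPDH loading control, 30 μg protein/lane) in lysates of MV-411 cells exposed 24 h to final compound concentrations of 100, 10, 3, 1, 0.3 and 0.1 nM (0.1% DMSO). Degradation relative to DMSO set at 100%; DC50 derived by curve fitting.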

DC50 (SHP2 protein [1]) | DC50 (SHP2 protein [2]) | DC50 (SHP2 protein [3]) | SMILES
< 100 nM | < 100 nM | – | CC1(N)CCN(c2cnc(Sc3cccc(NC(=O)CCCCCCCCN4C5CCC4CC(c4ccc(C(=O)NCc6ccc7c(c6)CN(C6CCC(=O)NC6=O)C7=O)nn4)C5)c3)cn2)CC1 (single isomer, unassigned) [Compound 232]
< 100 nM | – | – | CC1(N)CCN(c2cnc(Sc3cccc(NC(=O)CCCCCCCCN4C5CCC4CC(c4ccc(C(=O)NCc6ccc7c(c6)CN(C6CCC(=O)NC6=O)C7=O)nn4)C5)c3)cn2)CC1 (single isomer, unassigned) [Compound 233]
< 100 nM | – | – | CC1(N)CCN(c2cnc(Sc3cccc(NC(=O)CCCCCCCCN4C5CCC4CC(c4ccc(C(=O)NCc6ccc7c(c6)CN(C6CCC(=O)NC6=O)C7=O)nn4)C5)c3)cn2)CC1 (single isomer, unassigned) [Compound 234]
– | > 1000 nM | < 100 nM | O=C1CCC(N2Cc3cc(CNC(=O)c4ccc(N5CCC6(CN(CCCCCCC(=O)Nc7cccc(Sc8cnc(N9CCC%10(CCNC%10)CC9)cn8)c7)C6)C5)nn4)ccc3C2=O)C(=O)N1 (stereo not shown) [Compound 112]
– | > 1000 nM | > 1000 nM | NC1CCN(c2cnc(Sc3cccc(NC(=O)CCCCN4CC5(CCN(c6ccc(C(=O)NCc7ccc8c(c7)CN(C7CCC(=O)NC7=O)C8=O)nn6)C5)C4)c3)cn2)CC1F (stereo not shown) [Compound 140]
– | < 100 nM | < 100 nM | CC1(N)CCN(c2cnc(Sc3cccc(NC(=O)CCCCCCCOC4CCN(c5ccc(C(=O)NCc6ccc7c(c6)CN(C6CCC(=O)NC6=O)C7=O)nn5)CC4F)c3)cn2)CC1 (stereo not shown) [Compound 146]
< 100 nM | – | – | CC1(N)CCN(c2cnc(Sc3cccc(NC(=O)CCCCCCCOC4CCN(c5ccc(C(=O)NCc6ccc7c(c6)CN(C6CCC(=O)NC6=O)C7=O)nn5)CC4F)c3)cn2)CC1 (stereo not shown) [Compound 147]
– | < 100 nM | < 100 nM | CC1(N)CCN(c2cnc(Sc3cccc(NC(=O)CCCCCCN4CC5(CCN(c6ccc(C(=O)NCc7ccc8c(c7)CN(C7CCC(=O)NC7=O)C8=O)cn6)C5)C4)c3)cn2)CC1 (stereo not shown) [Compound 155]
– | > 1000 nM | < 100 nM | CC1(N)CCN(c2cnc(Sc3cccc(NC(=O)CCCCCCN4CC5(CCN(c6ccc(C#Cc7ccc8c(c7)CN(C7CCC(=O)NC7=O)C8=O)nn6)C5)C4)c3)cn2)CC1 (stereo not shown) [Compound 157]
– | > 1000 nM | 100 to 1000 nM | CC1(N)CCN(c2cnc(Sc3cccc(NC(=O)CCCCCCN4CC5(CCN(C6CC(C(=O)NCc7ccc8c(c7)CN(C7CCC(=O)NC7=O)C8=O)C6)C5)C4)c3)cn2)CC1 (stereo not shown) [Compound 160]
– | < 100 nM | < 100 nM | CC1(N)CCN(c2cnc(Sc3cccc(NC(=O)CCCCCOC4CC5(CCN(c6ccc(C(=O)NCc7ccc8c(c7)CN(C7CCC(=O)NC7=O)C8=O)nn6)C5)C4)c3)cn2)CC1 (stereo not shown) [Compound 166]
– | 100 to 1000 nM | < 100 nM | CC1(N)CCN(c2cnc(Sc3cccc(NC(=O)CCCCCCN4CC5(CCN(c6ncc(C(=O)NCc7ccc8c(c7)CN(C7CCC(=O)NC7=O)C8=O)cc6C(F)(F)F)C5)C4)c3)cn2)CC1 (stereo not shown) [Compound 170]
– | < 100 nM | < 100 nM | CC1(N)CCN(c2cnc(Sc3cccc(NC(=O)CCCCCCCO[C@@H]4CN(c5ccc(C(=O)NCc6ccc7c(c6)CN(C6CCC(=O)NC6=O)C7=O)nn5)CC4(F)F)c3)cn2)CC1 (stereo partly shown) [Compound 178]
– | > 1000 nM | < 100 nM | CC1(N)CCN(c2cnc(Sc3cccc(NC(=O)CCCCCCN4CC5(CCN(c6cnc(C(=O)NCc7ccc8c(c7)CN(C7CCC(=O)NC7=O)C8=O)cn6)C5)C4)c3)cn2)CC1 (stereo not shown) [Compound 179]
– | > 1000 nM | < 100 nM | CC1(N)CCN(c2cnc(Sc3cccc(NC(=O)CCCCCCOC4CC5CN(c6ccc(C(=O)NCc7ccc8c(c7)CN(C7CCC(=O)NC7=O)C8=O)nn6)CC5C4)c3)cn2)CC1 (stereo not shown) [Compound 183]
– | 100 to 1000 nM | < 100 nM | CC1(N)CCN(c2cnc(Sc3cccc(NC(=O)CCCCCCCCCCNc4ccc(C(=O)NCc5ccc6c(c5)CN(C5CCC(=O)NC5=O)C6=O)nn4)c3)cn2)CC1 (stereo not shown) [Compound 185]
– | > 1000 nM | < 100 nM | CC1(N)CCN(c2cnc(Sc3cccc(NC(=O)CCCCCOc4ccc(C5CC5C(=O)NCc5ccc6c(c5)C(=O)N(C5CCC(=O)NC5=O)C6)cc4)c3)cn2)CC1 (stereo not shown) [Compound 189, 2-(4-((6-((3-((5-(4-amino-4-methylpyridin-1-yl)pyrazin-2-yl)thio)phenyl)amino)-6-oxohexyl)oxy)phenyl)-N-((2-(2,6-dioxopiperidin-3-yl)-3-oxoisoindol-5-yl)methyl)cyclopropane-1-formamide]
– | > 1000 nM | 100 to 1000 nM | NC1(CO)CCN(c2cnc(Sc3cccc(NC(=O)CCCCCCN4CC5(CCN(c6ccc(C(=O)NCc7ccc8c(c7)CN(C7CCC(=O)NC7=O)C8=O)nc6)C5)C4)c3)cn2)CC1 (stereo not shown) [Compound 190]
– | > 1000 nM | < 100 nM | CC1(N)CCN(c2cnc(Sc3cccc(NC(=O)CCCCCOc4ccc(C5CCC(C(=O)NCc6ccc7c(c6)CN(C6CCC(=O)NC6=O)C7=O)CC5)cc4)c3)cn2)CC1 (stereo not shown) [Compound 191]
– | > 1000 nM | < 100 nM | CC1(N)CCN(c2cnc(Sc3cccc(NC(=O)CCCCCOc4ccc(C5CCC(C(=O)NCc6ccc7c(c6)CN(C6CCC(=O)NC6=O)C7=O)CC5)cc4)c3)cn2)CC1 (stereo not shown) [Compound 192]
– | < 100 nM | < 100 nM | COCC1(N)CCN(c2cnc(Sc3cccc(NC(=O)CCCCCCN4CC5(CCN(c6ccc(C(=O)NCc7ccc8c(c7)CN(C7CCC(=O)NC7=O)C8=O)nn6)C5)C4)c3)cn2)CC1 (stereo not shown) [Compound 199]
– | > 1000 nM | < 100 nM | Cc1cc(N2CCC3(CN(CCCCCCC(=O)Nc4cccc(Sc5cnc(N6CCC(N)(CO)CC6)cn5)c4)C3)C2)cnc1C(=O)NCc1ccc2c(c1)CN(C1CCC(=O)NC1=O)C2=O (stereo not shown) [Compound 208]
– | > 1000 nM | < 100 nM | CC1(N)CCN(c2cnc(Sc3cccc(NC(=O)CCCCCC=C4CC5(CCN(c6ccc(C(=O)NCc7ccc8c(c7)CN(C7CCC(=O)NC7=O)C8=O)nn6)CC5)C4)c3)cn2)CC1 (stereo not shown) [Compound 209]
– | < 100 nM | < 100 nM | COc1nc(N2CCC3(CN(CCCCCCC(=O)Nc4cccc(Sc5cnc(N6CCC(C)(N)CC6)cn5)c4)C3)C2)ccc1C(=O)NCc1ccc2c(c1)CN(C1CCC(=O)NC1=O)C2=O (stereo not shown) [Compound 211]
< 100 nM | – | – | CC1(N)CCN(c2cnc(Sc3cccc(NC(=O)CCCCCCCCN4CCN(c5ccc(C(=O)NCc6ccc7c(c6)CN(C6CCC(=O)NC6=O)C7=O)nn5)CC4C(F)(F)F)c3)cn2)CC1 (stereo not shown) [Compound 225]
< 100 nM | – | – | CC1(N)CCN(c2cnc(Sc3cccc(NC(=O)CCCCCCCCN4CCc5cc(C(=O)NCc6ccc7c(c6)CN(C6CCC(=O)NC6=O)C7=O)cnc5C4)c3)cn2)CC1 (stereo not shown) [Compound 235]
< 100 nM | – | – | CC1(N)CCN(c2cnc(Sc3cccc(NC(=O)CCCCOc4ccc(N5CCN(c6ccc(C(=O)NCc7ccc8c(c7)CN(C7CCC(=O)NC7=O)C8=O)nn6)CC5)cc4)c3)cn2)CC1 (stereo not shown) [Compound 236]
> 1000 nM | – | – | Cc1ncsc1-c1ccc([C@H](C)NC(=O)[C@@H]2C[C@@H](O)CN2C(=O)[C@@H](NC(=O)c2cnc(N3CC(OCC(=O)Nc4cccc(Sc5cnc(N6CCC(C)(N)CC6)cn5)c4)C3)nc2)C(C)(C)C)cc1 [Compound 240]
